Consider six compounds from patent US7691861B2, “Indolymaleimide derivatives” (Novartis AG, priority 2004, dated 2010).

One experiment has as its target Human recombinant PKCθ (Homo sapiens, UniProt Q04759). Kind of experiment: Protein Kinase Cθ Assay. Format: biochemical. The conditions noted are these: 10 μM 33P-ATP. As to the method: (§1) The compounds of the invention are tested for their activity on different PKC isoforms according to the following method. Assay is performed in a white with clear bottom 384-well microtiterplate with non-binding surface. The reaction mixture (25 μl) contains 1.5 μM of a tridecapeptide acceptor substrate that mimics the pseudo substrate sequence of PKC α with the Ala→Ser replacement, 10 μM ^33P-ATP, 10 mM Mg(NO3)2, 0.2 mM CaCl2, […] at a protein concentration varying from 25 to 400 ng/ml (depending on the isotype used), lipid vesicles (containing 30 mol % phosphatidylserine, 5 mol % DAG and 65 mol % phosphatidylcholine) at a final lipid concentration of 0.5 mM, in 20 mM Tris-HCl buffer pH 7.4+0.1% BSA. Incubation is performed for 60 min at room temperature.
Human recombinant PKCθ is used under the assay conditions as described above.

Another experiment addresses T1, Human recombinant PKCε (Homo sapiens, UniProt Q02156).
T1 construct: purchased Oxford Biomedical Research
T1 sequence (Q02156 1-737): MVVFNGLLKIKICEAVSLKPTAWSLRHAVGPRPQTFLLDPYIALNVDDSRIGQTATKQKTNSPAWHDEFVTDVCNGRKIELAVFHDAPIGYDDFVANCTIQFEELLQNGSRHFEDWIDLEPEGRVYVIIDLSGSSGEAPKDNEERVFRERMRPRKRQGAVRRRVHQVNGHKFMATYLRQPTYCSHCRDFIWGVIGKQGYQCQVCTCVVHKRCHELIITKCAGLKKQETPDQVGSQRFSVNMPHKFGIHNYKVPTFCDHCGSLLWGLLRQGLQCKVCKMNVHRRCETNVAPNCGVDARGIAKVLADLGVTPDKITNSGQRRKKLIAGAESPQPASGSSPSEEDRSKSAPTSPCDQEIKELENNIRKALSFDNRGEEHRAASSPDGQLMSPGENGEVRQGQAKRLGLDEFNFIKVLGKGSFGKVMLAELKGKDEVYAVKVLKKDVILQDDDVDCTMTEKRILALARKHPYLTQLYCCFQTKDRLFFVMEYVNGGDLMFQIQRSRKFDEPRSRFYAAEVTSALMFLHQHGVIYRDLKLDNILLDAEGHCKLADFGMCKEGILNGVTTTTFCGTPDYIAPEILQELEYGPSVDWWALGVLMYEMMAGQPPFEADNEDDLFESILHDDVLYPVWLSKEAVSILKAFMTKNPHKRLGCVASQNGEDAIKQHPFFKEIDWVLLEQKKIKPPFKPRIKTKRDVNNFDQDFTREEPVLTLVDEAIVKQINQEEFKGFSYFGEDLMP
In words: Protein Kinase Cε Assay. The settings on record: 10 μM 33P-ATP. Format: biochemical. As to the method:
as §1
Human recombinant PKCε is obtained from Oxford Biomedical Research and is used under the assay conditions as described under Section A.1 above.

For a further experiment, the target named is T2, Human recombinant PKCη (Homo sapiens, UniProt P24723).
T2 construct: purchased PanVera
In words: Protein Kinase Cη Assay. The conditions noted are these: 10 μM 33P-ATP. The format is biochemical. As for the experimental part: as §1
Human recombinant PKCη is obtained from PanVera and is used under the assay conditions as described under Section A.1 above.

In a further experiment the target is T3, Human recombinant PKCδ (Homo sapiens, UniProt Q05655).
T3 construct: purchased Oxford Biomedical Research
Kind of experiment: Protein Kinase Cδ Assay. The format is biochemical. The conditions noted are these: 10 μM 33P-ATP. As to the method:
as §1
Human recombinant PKCδ is obtained from Oxford Biomedical Research and is used under the assay conditions as described under Section A.1 above.

The target in a further experiment is T4, Human recombinant PKCβ1 (Homo sapiens, UniProt P05771).
T4 construct: purchased Oxford Biomedical Research
Kind of experiment: Protein Kinase Cβ1 Assay. The format is biochemical. The settings on record: human recombinant PKCβ1, 10 μM 33P-ATP. As to the method:
as §1
Human recombinant PKCβ1 is obtained from Oxford Biomedical Research and is used under the assay conditions as described under Section A.1 above.

Experiment [1] relates to spleen cells from CBA and BALB/c mice. Kind of experiment: Allogeneic Mixed Lymphocyte Reaction (MLR). The settings on record: CBA and BALB/c mouse spleen cells, 3H-thymidine incorporation after four days, read-out: IC50, inhibition of proliferation in two-way MLR. Format: cell-based. As to the method: Briefly, spleen cells from CBA and BALB/c mice (1.6×10^5 cells from each strain per well in flat bottom tissue culture microtiter plates, 3.2×10^5 in total) are incubated in RPMI medium containing 10% FCS, 100 U/ml penicillin, 100 μg/ml streptomycin (Gibco BRL, Basel, Switzerland), 50 μM 2-mercaptoethanol (Fluka, Buchs, Switzerland) and serially diluted compounds. Seven three-fold dilution steps in duplicates per test compound are performed. After four days of incubation 1 μCi ^3H-thymidine is added. Cells are harvested after an additional five-hour incubation period, and incorporated ^3H-thymidine is determined according to standard procedures. Background values (low control) of the MLR are the proliferation of BALB/c cells alone. Low controls are subtracted from all values. High controls without any sample are taken as 100% proliferation.

The next experiment has as its target T5, Human recombinant PKCα (Homo sapiens, UniProt P17252).
T5 construct: purchased Oxford Biomedical Research
Kind of experiment: Protein Kinase Cα Assay. The format is biochemical. The settings on record: 10 μM 33P-ATP. As for the experimental part:
as §1
Human recombinant PKCα is obtained from Oxford Biomedical Research and is used under the assay conditions as described under Section A.1 above.

The subject of experiment [2] is Jurkat cells transfected with a human interleukin-2 promoter/reporter gene construct. In words: CD28 Costimulation Assay. The conditions noted are these: IL-2 promoter luciferase reporter, 5.5 hours, read-out: IC50, inhibition of anti-T cell receptor/anti-CD28 and PMA/ionomycin stimulated Jurkat cells. Format: cell-based. As to the method: The assay is performed with Jurkat cells transfected with a human interleukin-2 promoter/reporter gene construct as described by Baumann G et al. in Transplant. Proc. 1992; 24:43-8, the β-galactosidase reporter gene being replaced by the luciferase gene (de Wet J., et al., Mol. Cell. Biol. 1987, 7(2), 725-737). Cells are stimulated by solid phase-coupled antibodies or phorbol myristate acetate (PMA) and the Ca^++ ionophore ionomycin as follows. For antibody-mediated stimulation Microlite TM1 microtiter plates (Dynatech) are coated with 3 μg/ml goat anti-mouse IgG Fc antibodies (Jackson) in 55 μl phosphate-buffered saline (PBS) per well for three hours at RT. Plates are blocked after removing the antibodies by incubation with 2% bovine serum albumin (BSA) in PBS (300 μl per well) for 2 hours at RT. […] After incubation for 5.5 hours at 37° C. in 5% CO2, the level of luciferase is determined by bioluminescence measurement. […] Luciferase activity is assessed with a bioluminescence reader (Labsystem, Helsinki, Finland) after automatic addition of 50 μl per well luciferase reaction buffer containing 20 mM Tricine, 1.07 mM (MgCO3)4Mg(OH)2×5H2O, 2.67 mM MgSO4, 0.1 mM EDTA, 33.3 mM DTT, 270 μM coenzyme A, 470 μM luciferin (Chemie Brunschwig AG), 530 μM ATP, pH 7.8. […] The inhibition obtained in the presence of a test compound is calculated as percent inhibition of the high control.

T3 sequence (Q05655 whole entry): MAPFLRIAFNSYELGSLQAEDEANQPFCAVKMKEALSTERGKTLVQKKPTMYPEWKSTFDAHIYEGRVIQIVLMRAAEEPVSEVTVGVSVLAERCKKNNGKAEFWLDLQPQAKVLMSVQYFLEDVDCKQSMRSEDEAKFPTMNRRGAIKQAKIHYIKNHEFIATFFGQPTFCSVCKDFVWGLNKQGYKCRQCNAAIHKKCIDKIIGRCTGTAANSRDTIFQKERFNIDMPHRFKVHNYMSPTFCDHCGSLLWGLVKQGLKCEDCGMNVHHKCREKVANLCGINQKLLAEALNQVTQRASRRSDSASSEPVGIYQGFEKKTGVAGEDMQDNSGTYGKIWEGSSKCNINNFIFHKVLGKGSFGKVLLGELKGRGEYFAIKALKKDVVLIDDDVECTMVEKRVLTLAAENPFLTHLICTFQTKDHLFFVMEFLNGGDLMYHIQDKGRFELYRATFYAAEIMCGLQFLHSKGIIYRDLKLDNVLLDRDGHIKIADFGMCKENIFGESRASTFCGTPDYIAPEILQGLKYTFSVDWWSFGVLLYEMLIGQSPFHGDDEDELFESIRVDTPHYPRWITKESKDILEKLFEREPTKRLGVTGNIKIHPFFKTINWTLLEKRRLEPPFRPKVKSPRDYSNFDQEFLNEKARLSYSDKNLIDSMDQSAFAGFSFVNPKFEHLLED
T2 sequence (P24723 whole entry): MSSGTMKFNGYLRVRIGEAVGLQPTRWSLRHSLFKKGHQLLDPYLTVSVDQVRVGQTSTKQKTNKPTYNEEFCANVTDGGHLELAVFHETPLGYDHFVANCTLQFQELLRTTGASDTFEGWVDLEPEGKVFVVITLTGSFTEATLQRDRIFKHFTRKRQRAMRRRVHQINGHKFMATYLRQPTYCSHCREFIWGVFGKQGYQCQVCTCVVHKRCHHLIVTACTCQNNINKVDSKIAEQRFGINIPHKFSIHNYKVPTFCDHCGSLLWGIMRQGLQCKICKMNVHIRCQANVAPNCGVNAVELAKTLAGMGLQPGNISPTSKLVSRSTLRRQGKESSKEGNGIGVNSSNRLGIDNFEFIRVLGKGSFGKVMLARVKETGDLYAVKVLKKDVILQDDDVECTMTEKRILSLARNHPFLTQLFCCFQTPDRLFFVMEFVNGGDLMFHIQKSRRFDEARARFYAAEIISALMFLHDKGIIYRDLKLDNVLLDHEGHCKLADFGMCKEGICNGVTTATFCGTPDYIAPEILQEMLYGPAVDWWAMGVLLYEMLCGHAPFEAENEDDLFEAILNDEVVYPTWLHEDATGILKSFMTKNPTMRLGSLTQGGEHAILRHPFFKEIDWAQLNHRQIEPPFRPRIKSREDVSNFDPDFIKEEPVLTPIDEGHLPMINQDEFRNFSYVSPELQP
T4 sequence (P05771 whole entry): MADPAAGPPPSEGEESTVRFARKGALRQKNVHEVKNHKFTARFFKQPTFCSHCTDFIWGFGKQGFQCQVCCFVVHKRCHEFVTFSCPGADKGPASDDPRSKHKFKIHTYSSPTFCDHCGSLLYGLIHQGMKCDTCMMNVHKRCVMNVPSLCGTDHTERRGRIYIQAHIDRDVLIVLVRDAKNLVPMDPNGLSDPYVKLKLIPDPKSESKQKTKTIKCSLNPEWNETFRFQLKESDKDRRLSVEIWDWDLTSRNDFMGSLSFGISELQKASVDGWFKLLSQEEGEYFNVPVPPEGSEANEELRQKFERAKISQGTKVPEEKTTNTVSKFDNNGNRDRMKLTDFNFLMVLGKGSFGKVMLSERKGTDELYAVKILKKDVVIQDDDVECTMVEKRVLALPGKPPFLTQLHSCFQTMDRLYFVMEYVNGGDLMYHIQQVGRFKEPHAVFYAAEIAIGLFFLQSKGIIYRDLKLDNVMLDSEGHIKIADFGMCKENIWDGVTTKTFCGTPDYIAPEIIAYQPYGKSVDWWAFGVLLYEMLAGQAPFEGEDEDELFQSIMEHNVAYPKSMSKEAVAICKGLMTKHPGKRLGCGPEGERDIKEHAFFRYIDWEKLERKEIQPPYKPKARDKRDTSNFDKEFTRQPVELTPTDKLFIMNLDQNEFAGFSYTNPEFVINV
Human recombinant PKCθ, sequence (Q04759 whole entry, canonical isoform): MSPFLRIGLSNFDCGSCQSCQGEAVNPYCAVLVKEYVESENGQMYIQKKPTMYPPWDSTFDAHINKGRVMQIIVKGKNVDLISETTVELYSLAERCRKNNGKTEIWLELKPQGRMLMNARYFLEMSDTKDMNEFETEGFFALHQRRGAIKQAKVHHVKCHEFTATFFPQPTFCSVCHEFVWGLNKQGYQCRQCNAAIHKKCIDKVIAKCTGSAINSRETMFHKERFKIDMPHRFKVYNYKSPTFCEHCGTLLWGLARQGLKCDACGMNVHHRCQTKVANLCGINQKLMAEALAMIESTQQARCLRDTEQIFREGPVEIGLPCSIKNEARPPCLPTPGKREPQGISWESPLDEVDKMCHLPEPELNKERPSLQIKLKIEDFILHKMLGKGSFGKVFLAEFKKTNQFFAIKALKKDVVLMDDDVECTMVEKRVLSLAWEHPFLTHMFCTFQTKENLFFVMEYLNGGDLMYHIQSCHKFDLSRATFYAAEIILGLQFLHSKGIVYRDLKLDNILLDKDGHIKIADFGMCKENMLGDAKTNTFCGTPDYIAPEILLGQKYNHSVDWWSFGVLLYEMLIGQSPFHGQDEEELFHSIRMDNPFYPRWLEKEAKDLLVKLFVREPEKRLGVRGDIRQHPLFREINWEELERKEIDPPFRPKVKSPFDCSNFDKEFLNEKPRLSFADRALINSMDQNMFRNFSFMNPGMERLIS

Turning to `CN(C)Cc1ccc2c(C3=C(c4cn(C)c5ccccc45)C(=O)NC3=O)c(Cl)ccc2c1` [example 1, 3-(2-Chloro-6-dimethylaminomethyl-naphthalen-1-yl)-4-(1-methyl-1H-indol-3-yl)-pyrrole-2,5-dione], the IC50 at Human recombinant PKCθ turned out to be 19.2 nM; at Human recombinant PKCε, 17.6 nM.
As for `Cc1cccc2c(C3=C(c4cccc5cc(CN)ccc45)C(=O)NC3=O)c[nH]c12` [example 3], on Human recombinant PKCη, the IC50 amounted to 53.9 nM.
As to `CN(C)Cc1ccc2c(C3=C(c4c[nH]c5ccccc45)C(=O)NC3=O)c(Cl)ccc2c1` [example 4], the IC50 on Human recombinant PKCη turned out to be 7.2 nM; on Human recombinant PKCδ, 9.4 nM.
On to `Cc1cccc2c(C3=C(c4c(Cl)ccc5cc(CN(C)C)ccc45)C(=O)NC3=O)c[nH]c12` [example 5], for which the IC50 came out at 2.3 nM on Human recombinant PKCβ1; 183 nM in experiment [1]; 4.5 nM at Human recombinant PKCδ; 0.9 nM at Human recombinant PKCα; 11.5 nM in experiment [2].
As to `CNCc1ccc2c(C3=C(c4c[nH]c5ccccc45)C(=O)NC3=O)c(Cl)ccc2c1` [example 6], the results for the IC50 at Human recombinant PKCα and on Human recombinant PKCε were 1.1 nM and 2.3 nM, respectively.
With `CNCc1ccc2c(C3=C(c4c[nH]c5c(C)cccc45)C(=O)NC3=O)c(Cl)ccc2c1` [example 7], the IC50 is 2.8 nM on Human recombinant PKCβ1, 6.4 nM at Human recombinant PKCθ, 528 nM in experiment [1] and 27.5 nM in experiment [2].
